From the supplement of paper PMC10307832

Legend:
Assay in all cases: relative viability (nuclei count vs DMSO), 5 days (fraction); higher = more cells survive
QS11 + OSI-027 = compound: C1CC2=C(C1)C=C(C=C2)OC3=NC(=C4C(=N3)N(C=N4)CC5=CC=C(C=C5)C6=CC=CC=C6)N[C@@H](CC7=CC=CC=C7)CO [QS11] + COc1cccc2cc(-c3nc([C@H]4CC[C@H](C(=O)O)CC4)n4ncnc(N)c34)[nH]c12 [OSI-027] (partner 0.5 µM)
Method in brief: (§1)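 The day after seeding in 1536-well plates, lung cancer cell lines were treated by pin tool with a single drug, or with a fixed anchor-drug dose together with five library-drug doses (not always all listed) in √10 steps. After 5 days, a combined fix-and-stain solution (final 0.05% Triton X-100, 1% formaldehyde, 1 ug/ml Hoechst) was added. Nuclei counted on 4× images gave relative viability as treated counts over vehicle counts, reported as the median of duplicate plates.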

QS11 + Decitabine = compound: C1CC2=C(C1)C=C(C=C2)OC3=NC(=C4C(=N3)N(C=N4)CC5=CC=C(C=C5)C6=CC=CC=C6)N[C@@H](CC7=CC=CC=C7)CO [QS11] + Nc1ncn([C@H]2C[C@H](O)[C@@H](CO)O2)c(=O)n1 [Decitabine] (partner 2 µM)
Method in brief: as §1

AZ628 + AZD7762 = compound: CC1=C(C=C(C=C1)NC(=O)C2=CC(=CC=C2)C(C)(C)C#N)NC3=CC4=C(C=C3)N=CN(C4=O)C [AZ628] + NC(=O)Nc1cc(-c2cccc(F)c2)sc1C(=O)N[C@H]1CCCNC1 [AZD7762] (partner 0.2 µM)
Method in brief: as §1

AZ628 + Navitoclax = compound: CC1=C(C=C(C=C1)NC(=O)C2=CC(=CC=C2)C(C)(C)C#N)NC3=CC4=C(C=C3)N=CN(C4=O)C [AZ628] + CC1(C)CCC(c2ccc(Cl)cc2)=C(CN2CCN(c3ccc(C(=O)NS(=O)(=O)c4ccc(N[C@H](CCN5CCOCC5)CSc5ccccc5)c(S(=O)(=O)C(F)(F)F)c4)cc3)CC2)C1 [Navitoclax] (partner 0.5 µM)
Method in brief: as §1

Row | Cell Line | relative viability (QS11 + OSI-027; first compound 0.08 µM) | relative viability (QS11 + OSI-027; first compound 0.253 µM) | relative viability (QS11 + OSI-027; first compound 0.8 µM) | relative viability (QS11 + OSI-027; first compound 2.53 µM) | relative viability (QS11 + OSI-027; first compound 8 µM) | relative viability (QS11 + Decitabine; first compound 0.08 µM) | relative viability (QS11 + Decitabine; first compound 0.253 µM) | relative viability (QS11 + Decitabine; first compound 0.8 µM) | relative viability (QS11 + Decitabine; first compound 2.53 µM) | relative viability (QS11 + Decitabine; first compound 8 µM) | relative viability (AZ628 + AZD7762; first compound 0.08 µM) | relative viability (AZ628 + AZD7762; first compound 0.253 µM) | relative viability (AZ628 + AZD7762; first compound 0.8 µM) | relative viability (AZ628 + AZD7762; first compound 2.53 µM) | relative viability (AZ628 + AZD7762; first compound 8 µM) | relative viability (AZ628 + Navitoclax; first compound 0.08 µM) | relative viability (AZ628 + Navitoclax; first compound 0.253 µM) | relative viability (AZ628 + Navitoclax; first compound 0.8 µM) | relative viability (AZ628 + Navitoclax; first compound 2.53 µM) | relative viability (AZ628 + Navitoclax; first compound 8 µM)
1 | NCI-H322M | 0.549 | 0.607 | 0.636 | 0.687 | 0.732 | 0.741 | 0.739 | 0.672 | 0.801 | 0.935 | 0.529 | 0.526 | 0.455 | 0.467 | 0.524 | 1.34 | 1.14 | 1.19 | 1.24 | 0.914
2 | NCI-H441 | 0.614 | 0.619 | 0.76 | 0.566 | 0.548 | 0.236 | 0.215 | 0.254 | 0.234 | 0.225 | 1.41 | 0.841 | 0.911 | 1.1 | 0.655 | 0.565 | 0.508 | 0.765 | 0.902 | 0.633
3 | NCI-H460 | 0.719 | 0.756 | 0.663 | 0.446 | 0.257 | 0.578 | 0.477 | 0.298 | 0.503 | 0.382 | 0.51 | 0.589 | 0.627 | 0.672 | 0.596 | 1.2 | 1.18 | 1.09 | 1.09 | 0.561
4 | NCI-H596 | 0.715 | 0.688 | 0.679 | 0.66 | 0.732 | 1.26 | 0.87 | 0.971 | 1.17 | 1.04 | 1.11 | 1.08 | 1.02 | 1.17 | 0.915 | 0.839 | 1 | 1.08 | 1.03 | 0.931
